Results: patent US20060035873A1, “Methods for inducing apolipoprotein e secretion” (priority 2000, published 2006)
Where two headings read alike, the source gives them in different places.

Key:
[1] = system: ApoE secretion by THP-1 cells; assay: Secretion of ApoE by THP-1 cells, ApoE determined by ELISA; assay type: cell-based, human; conditions: for Change in Apo E production: 72 hours incubation
Description: The activities of the compounds can be determined an in vitro assay which comprises testing the effects of FXR and LXRα activators on the secretion of ApoE in the THP-1 cell line.
The THP1 cell line was derived from the peripheral blood of a child with acute monocytic leukemia. […] Fresh medium was added to maintain cell density between 2 and 9×10^5 cells/ml. Once a week, new cultures were initiated by inoculating 10 ml of medium with 2×10^6 cells in a 75 cm^2 plate. The plates were kept at 37° C. in a 5% CO2 atmosphere. For screening, cells were seeded in 24-well plates at the density of 2×10^5 cells per well. Phorbol-12-myristat-13-acetate (PMA) was added at 0 and 2.5 nM to initiate THP1 differentiation into adherent macrophage-like cells. Vehicles, reference compounds and test compounds were added simultaneously at concentrations varying from 1 to 50 μM and incubated for 72 hours. The culture medium was then recovered, centrifuged at 300 g for 5 min to remove any unattached cell and stored at −20° C. before analysis.
96 well-microtiter plates were coated by incubating with a 5% gelatine solution from porcine skin, in 50 mM carbonate-bicarbonate buffer, pH9.6 at the concentration of 200 μl/well, for 2 hours at 37° C. The coating solution was carefully removed and the test compound was added (100 μl/well) at the appropriate dilution. Dilutions of a human ApoE standard (ICN BiomedicalsInc, USA) were simultaneously assayed. Test compounds and antibodies were diluted in the following buffer solution: PBS, 1% BSA, 0.1% Tween 20, pH 7.4. Test compounds were incubated for 1 hour at 37° C., and the wells were washed 3 times with 200 μl of buffer solution. One hundred microliters per well of the primary antibody (goat anti-human ApoE IgG) diluted 10000 fold was incubated for 1 hour at 37° C. under continuous shaking. After the third wash, 100 μl/well of the secondary antibody (anti-goat-IgG peroxidase conjugate) diluted 5000 fold was incubated for 1 hour at 37° C. with continuous shaking. Wells were washed 5 times and 100 μl/well of substrate (ortho-phenylenediamine dihydrochloride) was incubated for the appropriate time at room temperature in the dark with continuous shaking. The reaction was stopped by adding 50 μl/well of 3M sulfuric acid and incubating for 1 min at room temperature.

LXRα = target: T1, LXRα (Homo sapiens, UniProt Q13133); conditions: see Janowsky et al. PNAS 1999; cited from earlier work
T1 sequence (Q13133 1-447): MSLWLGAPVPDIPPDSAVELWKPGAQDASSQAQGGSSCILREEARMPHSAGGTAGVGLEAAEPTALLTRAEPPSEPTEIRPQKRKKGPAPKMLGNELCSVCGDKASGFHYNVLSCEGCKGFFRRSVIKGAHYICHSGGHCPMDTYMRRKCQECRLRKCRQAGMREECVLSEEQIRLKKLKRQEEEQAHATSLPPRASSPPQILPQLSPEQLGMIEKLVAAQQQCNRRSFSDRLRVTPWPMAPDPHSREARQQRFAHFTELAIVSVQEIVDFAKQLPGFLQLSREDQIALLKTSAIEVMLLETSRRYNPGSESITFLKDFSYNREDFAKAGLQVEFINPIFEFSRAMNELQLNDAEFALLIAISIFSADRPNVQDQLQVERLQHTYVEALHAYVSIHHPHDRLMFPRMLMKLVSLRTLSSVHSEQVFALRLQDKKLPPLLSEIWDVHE

FXR = conditions: cited from earlier work

## CC(C)CC[C@@H](O)[C@@H](C)[C@H]1CC[C@H]2[C@@H]3CC=C4C[C@@H](O)CC[C@]4(C)[C@H]3CC[C@]12C [22(R)-hydroxycholesterol, 5-cholestene-3β,22[R]-diol]
[1]; submicromolar concentrations
  ApoE secretion at submicromolar concentrations: significant increases in ApoE secretion
LXRα
  Interaction with Nuclear receptor: LXRα activator ^3)

## C[C@H](CCC(=O)O)[C@H]1CC[C@H]2[C@@H]3[C@H](O)C[C@@H]4C[C@H](O)CC[C@]4(C)[C@H]3C[C@H](O)[C@]12C [Cholic acid, 3α,7α,12α-trihydroxy-5β-cholan-24-oic acid]
[1]; compound 50 μM
  Change in Apo E production: +6%
[1]; compound 50 μM, listed as cholic acid
  Change in Apo E production: did not change ApoE secretion
FXR; see Makishima et al., Parks et al., Wang et al. 1999
  Interaction with Nuclear receptor: Does not activate

## CC(C)=CCC/C(C)=C/CC/C(C)=C/CC/C(C)=C/CO [Geranylgeraniol, All trans-3,7,11,15-tetramethyl-2,6,10,14-hexadecatetraen-1-ol]
[1]; compound 20 μM
  Change in Apo E production: +36%
[1]; compound 20 μM, listed as geranylgeraniol
  Change in Apo E production: 36%
FXR; see Forman et al. Cell 1995
  Interaction with Nuclear receptor: Does not activate

## CC(C)CC[C@H](O)[C@@H](C)[C@H]1CC[C@H]2[C@@H]3CC=C4C[C@@H](O)CC[C@]4(C)[C@H]3CC[C@]12C [22(S)-hydroxycholesterol, 5-cholestene-3β,22[S]-diol]
LXRα
  Interaction with Nuclear receptor: Less potent activator

## C[C@H](CCC(=O)O)[C@H]1CC[C@H]2[C@@H]3[C@H](O)C[C@@H]4C[C@H](O)CC[C@]4(C)[C@H]3CC[C@]12C [Chenodeoxycholic acid, 3α,7α-dihydroxy-5β-cholanic acid]
[1]; compound 50 μM
  Change in Apo E production: +138%
[1]; compound 50 μM, listed as chenodeoxycholic acid
  Change in Apo E production: 138%
